Experimental data reported in PMC9551036, “A selective and orally bioavailable VHL-recruiting PROTAC achieves SMARCA2 degradation in vivo” (Nature Communications, 2022).
Several values for one entry are separate records, joined by “and”; a condition that tells them apart may be missing. Identical values can stand only once. Like-named read-outs stand apart in the source and are kept apart here.

Columns and labels:
SMARCA4 [1] = target: T1, SMARCA4 (Homo sapiens, UniProt P51532); assay: SMARCA4 capillary electrophoresis protein assay in RKO cells; type: cell-based; set-up: endogenous in cells; host or cells: RKO, HCT116, LU99, HCC-364, HCT-15, HCC4006, SK-N-AS
T1 sequence (P51532 whole entry): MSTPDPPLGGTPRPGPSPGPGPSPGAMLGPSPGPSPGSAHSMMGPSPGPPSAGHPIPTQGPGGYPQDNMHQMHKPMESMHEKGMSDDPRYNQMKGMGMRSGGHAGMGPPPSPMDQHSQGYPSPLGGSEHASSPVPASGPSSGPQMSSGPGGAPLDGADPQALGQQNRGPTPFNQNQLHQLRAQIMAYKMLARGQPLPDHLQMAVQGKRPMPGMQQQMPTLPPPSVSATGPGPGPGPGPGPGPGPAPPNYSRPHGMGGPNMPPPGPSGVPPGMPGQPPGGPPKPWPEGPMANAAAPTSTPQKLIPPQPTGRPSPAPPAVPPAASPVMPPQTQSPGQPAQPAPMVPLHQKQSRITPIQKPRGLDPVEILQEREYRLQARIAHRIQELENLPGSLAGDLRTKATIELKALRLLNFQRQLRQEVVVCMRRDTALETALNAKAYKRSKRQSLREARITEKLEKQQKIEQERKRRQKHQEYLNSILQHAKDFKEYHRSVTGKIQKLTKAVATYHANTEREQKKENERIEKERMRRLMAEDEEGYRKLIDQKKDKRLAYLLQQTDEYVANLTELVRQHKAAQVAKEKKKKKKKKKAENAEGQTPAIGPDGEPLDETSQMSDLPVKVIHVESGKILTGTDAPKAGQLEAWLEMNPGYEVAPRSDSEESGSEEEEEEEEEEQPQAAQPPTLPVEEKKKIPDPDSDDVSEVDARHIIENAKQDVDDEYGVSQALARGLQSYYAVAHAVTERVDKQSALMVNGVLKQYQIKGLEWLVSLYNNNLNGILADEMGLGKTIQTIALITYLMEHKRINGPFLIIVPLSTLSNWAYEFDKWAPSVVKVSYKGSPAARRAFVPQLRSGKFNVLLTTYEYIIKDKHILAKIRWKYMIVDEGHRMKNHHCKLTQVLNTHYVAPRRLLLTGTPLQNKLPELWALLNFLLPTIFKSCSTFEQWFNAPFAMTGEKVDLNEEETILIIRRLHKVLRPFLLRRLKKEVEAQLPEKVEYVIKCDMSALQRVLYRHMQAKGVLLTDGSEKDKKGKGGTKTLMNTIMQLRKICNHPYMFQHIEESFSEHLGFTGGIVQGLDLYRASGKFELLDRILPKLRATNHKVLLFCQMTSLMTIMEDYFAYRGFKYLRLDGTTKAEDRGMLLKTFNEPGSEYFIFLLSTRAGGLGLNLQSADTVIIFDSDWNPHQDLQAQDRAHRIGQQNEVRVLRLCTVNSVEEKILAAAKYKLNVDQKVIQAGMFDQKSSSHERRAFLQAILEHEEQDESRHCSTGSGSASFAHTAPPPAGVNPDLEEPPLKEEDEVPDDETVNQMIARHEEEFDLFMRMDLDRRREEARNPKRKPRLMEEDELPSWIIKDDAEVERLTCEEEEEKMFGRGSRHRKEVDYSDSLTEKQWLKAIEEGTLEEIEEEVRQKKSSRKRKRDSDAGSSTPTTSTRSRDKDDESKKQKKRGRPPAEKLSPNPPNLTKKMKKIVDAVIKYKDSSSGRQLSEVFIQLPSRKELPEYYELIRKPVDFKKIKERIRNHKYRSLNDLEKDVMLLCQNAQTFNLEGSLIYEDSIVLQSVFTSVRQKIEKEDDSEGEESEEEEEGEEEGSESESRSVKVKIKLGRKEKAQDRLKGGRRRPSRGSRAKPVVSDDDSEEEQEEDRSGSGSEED
Method: 130,000–200,000 cells were seeded in 24-well plates and incubated until settled down or overnight. Compounds were dissolved in DMSO and added to cells in indicated concentrations using a digital dispenser following an optional media change. Cells were incubated for 4 or 18 h as indicated. For SMARCA2/4 half-life determination, 150,000 or 200,000 cells were seeded in 24-well plates. The next day, 50 µg/ml cycloheximide (Sigma) was added and cells were incubated for 1–24 h. For SMARCA2/4 re-synthesis measurements, 200,000 cells were seeded in 24-well plates. The next day, 100 nM compound 6 was added for 4 h to degrade SMARCA2/4, and a sample was taken as baseline for normalisation. To allow re-synthesis, a VHL binder (compound 32, 25 or 50 µM) was then added for 3 or 24 h. Medium was removed, cells were washed with PBS and lysed with 80 µl Lysis Buffer (MSD Tris Lysis Buffer (#R60TX-2) + Halt Inhibitor Cocktail (100x) + Benzonase 0.5 µL/ml). Samples were frozen at −80 °C and thawed at room temperature before use. Samples were transferred to a V-bottom plate and insoluble debris was pelleted by centrifugation for 5 min at maximum speed. The supernatant was transferred to a fresh plate. Master Mix and Ladder were prepared according to manufacturer’s instructions for 12–230 kDa Wes Separation Module, 8 × 25 capillary cartridges, Protein Simple #SM-W004 with Anti-Rabbit Detection Module for Wes, Peggy Sue or Sally Sue, Protein Simple #DM-001. 4.8 µl lysate were mixed with 1.2 µl Master Mix to achieve a protein concentration of ~0.5 µg/µl. Antibodies were diluted in Antibody Diluent II (SMARCA2 Sigma #HPA029981 RRID:AB_10602406 1:25–100, SMARCA4 Cell Signalling #49360 clone D1Q7F RRID:AB_2728743 1:15–120 or Abcam #ab110641 clone EPNCIR111A RRID:AB_10861578 1:60, GAPDH Abcam #ab9485 RRID:AB_307275 1:250). Wes plates were prepared and run according to manufacturer’s instructions. Proteins were quantified with accompanying Compass Software. SMARCA2/4 protein levels were normalised to GAPDH. […] Where applicable, curves were fitted using a 4-parametric logistic model.

[2] = target: VCB: PROTAC: SMARCA4^BD ternary complex (Homo sapiens, UniProt P40337+P51532); assay: TR-FRET ternary complex affinity and cooperativity, SMARCA4; type: binding; set-up: P51532, residues 1448–1569 with additional N-terminal SM residues; GST (TEV site) (N); His6 (TEV site) (N, cleaved yes); made in house; host or cells: SMARCA4^BD: Escherichia coli BL21(DE3)
Chain of VCB: PROTAC: SMARCA4^BD ternary complex (P51532 1448-1569): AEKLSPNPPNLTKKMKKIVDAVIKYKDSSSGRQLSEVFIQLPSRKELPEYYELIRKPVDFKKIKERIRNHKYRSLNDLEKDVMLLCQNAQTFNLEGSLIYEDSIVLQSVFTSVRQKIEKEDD
Chain of VCB: PROTAC: SMARCA4^BD ternary complex (P40337 54-213): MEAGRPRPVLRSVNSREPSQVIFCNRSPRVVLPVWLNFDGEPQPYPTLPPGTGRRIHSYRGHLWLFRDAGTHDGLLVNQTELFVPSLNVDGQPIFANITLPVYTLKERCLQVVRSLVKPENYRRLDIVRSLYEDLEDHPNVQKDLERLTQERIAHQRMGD
Chain of VCB: PROTAC: SMARCA4^BD ternary complex (Q15369 17-112 partner): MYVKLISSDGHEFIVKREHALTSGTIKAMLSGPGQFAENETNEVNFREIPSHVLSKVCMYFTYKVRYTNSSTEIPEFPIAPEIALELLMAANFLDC
Chain of VCB: PROTAC: SMARCA4^BD ternary complex (Q15370 1-104 partner): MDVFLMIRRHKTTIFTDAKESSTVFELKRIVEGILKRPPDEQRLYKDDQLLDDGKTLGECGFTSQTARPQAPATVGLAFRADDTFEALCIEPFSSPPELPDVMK

SMARCA4 [3] = target: T1, SMARCA4; assay: Imaging-based SMARCA4 protein assay in RKO cells; type: cell-based; set-up: endogenous in cells; host or cells: RKO, HCT116, LU99, HCC-364, HCT-15, HCC4006, SK-N-AS; conditions: individual replicates
Method: 1250 cells per well in 60 µl medium were plated in flat bottom, poly-lysin coated 384-well plates (CellCarrier Ultra, Perkin Elmer). The next day, test compounds (10 µl of serial dilutions) and DMSO controls were diluted in DMEM medium such that the final DMSO content was <1% or were added using an ultrasound dispensing system. 4 wells were reserved for a background measurement. […] After aspirating the fixing solution, the cells were washed once with 25 µl PBS. 25 µl of blocking buffer (10% goat serum in PBS) was added and cells were incubated for 30 min, then washed once with PBS. Cells were stained with 20 µl of SMARCA2/4 primary antibody solution (Sigma #HPA029981 RRID:AB_10602406 1:1000 or Cell Signalling #52251 clone E9O6 RRID:AB_2799410 1:1000 in PBS with 10% FCS) for 2–4 h at room temperature. Cells were again washed once with PBS. […] The cell layer was then washed once with 25 µl PBS, the wells were filled with 25 µl PBS and the plates were sealed with an adhesive sheet. They were then imaged on the Opera Phoenix (mean intensity in the nucleus). Results were computed as percent of controls ((value of test compound − background)/(value of the negative control DMSO—background) multiplied by 100). EC50 values were computed using a 4-parametric logistic model.

[4] = target: T2, VCB: PROTAC: SMARCA2^BD ternary complex (Homo sapiens, UniProt P51531); assay: TR-FRET ternary complex affinity and cooperativity, SMARCA2; type: binding
T2 construct: P51531-2, residues 1373-1493 with additional N-terminal SM residues; GST (TEV site) (N); His6 (TEV site) (N, cleaved yes); made in house; host or cells: SMARCA2^BD: Escherichia coli BL21(DE3)
T2 sequence (P51531 with tags, fused parts or gaps isoform P51531-2): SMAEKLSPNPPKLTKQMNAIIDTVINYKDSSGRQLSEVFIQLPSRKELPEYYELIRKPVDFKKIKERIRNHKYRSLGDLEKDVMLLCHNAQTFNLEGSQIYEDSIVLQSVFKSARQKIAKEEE

[5] = target: T3, (Homo sapiens, UniProt P51532); assay: TR-FRET ternary complex affinity and cooperativity, SMARCA4; type: binding
T3 construct: P51532, residues 1448–1569 with additional N-terminal SM residues; GST (TEV site) (N); His6 (TEV site) (N, cleaved yes); made in house; host or cells: SMARCA4^BD: Escherichia coli BL21(DE3)
T3 sequence (P51532 1448-1569): as the sequence (P51532 1448-1569) above

[6] = PROTAC + VCB, individual replicates, read-out: Ternary SMARCA4 BD EC50 (PROTAC + VCB)
[7] = TR-FRET competition for SMARCA4BD, + VCB, mean ± SD, read-out: TR-FRET Ternary SMARCA4BD EC50 (PROTAC + VCB)
[8] = 18h, read-out: RKO (18h) SMARCA4 DC50
[9] = TR-FRET competition for SMARCA2BD, without VCB, mean ± SD, read-out: TR-FRET SMARCA2BD EC50
[10] = binary, PROTAC alone, individual replicates, read-out: SMARCA2 BD EC50
[11] = TR-FRET competition for SMARCA4BD, without VCB, mean ± SD, read-out: TR-FRET SMARCA4BD EC50
[12] = binary, PROTAC alone, individual replicates, read-out: SMARCA4 BD EC50

SMILES	DC50 (SMARCA4 [1]; RKO (4 h), mean ± SD) [nM]	EC50 [2, 6]	EC50 [2, 7] [nM]	DC50 (SMARCA4 [3]; [8])	EC50 [4, 9] [nM]	EC50 [4, 10]	EC50 [5, 11] [nM]	EC50 [5, 12]	SMARCA4 Dmax (SMARCA4 [1]; RKO (4 h), mean ± SD) [%]	DC50 (SMARCA4 [1]; RKO (18 h), mean ± SD) [nM]	SMARCA4 Dmax (SMARCA4 [1]; RKO (18 h), mean ± SD) [%]	further results
Cc1ncsc1-c1ccc(C(CCC(C)CCN2CCC(c3ccc4c(c3)n(C3CCCC3)c3nc(=O)c5c(Br)cccc5n43)CC2)NC(=O)C2CC(O)CN2C(=O)C(NC(=O)C2(F)CC2)C(C)(C)C)cc1 (stereo not shown) [ACBI2]	> 25000	80.9 nM and 99.7 nM and 79.5 nM	86 ± 11	37.7 nM and 30.3 nM and 30.7 nM and 30.9 nM and 26.2 nM and 33.5 nM and 25.2 nM and 30.8 nM and 63.4 nM and 30 nM and 29.1 nM and 27.7 nM	172 ± 109	94.6 nM and 127 nM and 166 nM and 204 nM and 373 nM	314 ± 121	308 nM and 459 nM and 220 nM	–	–	–	DC50 (SMARCA4 [1]; RKO cells, time not stated at the place (Supplementary Data 2)): 32 nM; Dmax (SMARCA4 [1]; RKO, RKO (18 h), mean ± SD): 67 ± 8%; Bottom (% protein remaining, four-parameter fit) (SMARCA4 [1]; RKO, SM4): 39.28%; Top (% protein remaining, four-parameter fit) (SMARCA4 [1]; RKO, SM4): 143.4%; % protein remaining (SMARCA4 [1]; RKO, SM4, conc 9.54e-12 mol/l): 113.734% and 126.165%; % protein remaining (SMARCA4 [1]; RKO, SM4, conc 3.81e-11 mol/l): 121.614% and 148.911%; % protein remaining (SMARCA4 [1]; RKO, SM4, conc 1.53e-10 mol/l): 135.787% and 142.842%; % protein remaining (SMARCA4 [1]; RKO, SM4, conc 6.1e-10 mol/l): 143.182% and 145.479%; % protein remaining (SMARCA4 [1]; RKO, SM4, conc 2.44e-9 mol/l): 149.21% and 160.401%; % protein remaining (SMARCA4 [1]; RKO, SM4, conc 9.77e-9 mol/l): 171.8% and 162.178%; % protein remaining (SMARCA4 [1]; RKO, SM4, conc 3.91e-8 mol/l): 85.9345% and 100.013%; % protein remaining (SMARCA4 [1]; RKO, SM4, conc 1.56e-7 mol/l): 33.2702% and 37.8218%; % protein remaining (SMARCA4 [1]; RKO, SM4, conc 6.25e-7 mol/l): 30.6123% and 41.0571%; % protein remaining (SMARCA4 [1]; RKO, SM4, conc 2.5e-6 mol/l): 28.0108%; % protein remaining (SMARCA4 [1]; RKO, SM4, conc 1e-5 mol/l): 64.9119%
Cc1ncsc1-c1ccc(CNC(=O)[C@@H]2C[C@@H](O)CN2C(=O)[C@@H](NC(=O)C2(F)CC2)C(C)(C)C)c(OCCOCCOCCOCCN2CCC(c3ccc4c(c3)n(C3CCCC3)c3nc(=O)c5c(Br)cccc5n43)CC2)c1 [compound 22]	54 ± 47	73.1 nM and 97.3 nM and 87.2 nM and 102 nM	89 ± 13	39.9 nM and 168 nM and 69.1 nM	274 ± 41	242 nM and 328 nM and 288 nM and 245 nM	813 ± 126	659 nM and 965 nM and 837 nM and 819 nM	84 ± 1	77 ± 67	89 ± 5	DC50 (SMARCA4 [3]; 4h, read-out: RKO (4h) SMARCA4 DC50): 32.8 nM and 118 nM and 40 nM
Cc1ncsc1-c1ccc([C@H](COCCCN2CCC(c3ccc4c(c3)n(C3CCCC3)c3nc(=O)c5c(Br)cccc5n43)CC2)NC(=O)[C@@H]2C[C@@H](O)CN2C(=O)[C@@H](NC(=O)C2(F)CC2)C(C)(C)C)cc1 [compound 27]	42 ± 3	63.8 nM and 63.4 nM and 53.1 nM and 76.7 nM and 81.7 nM and 82 nM	69 ± 12	22.8 nM and 30.9 nM and 34.7 nM	91 ± 11	98.5 nM and 107 nM and 101 nM (2×) and 91.6 nM and 79.8 nM and 86.9 nM and 77.2 nM and 83.6 nM	193 ± 15	183 nM and 211 nM and 185 nM and 209 nM and 173 nM and 200 nM	55 ± 2	29 ± 6	83 ± 7	–
